From patent US20080207522A1, “Antimicrobial Peptides” (priority 2004, published 2008)
Where two headings read alike, the source gives them in different places. Ends that are not written are not given here.

How the values were obtained:
[1] = tested on: Enterococcus faecalis ATCC29212
Procedure: (§1) Minimal inhibitory concentration (MIC) determination. The MICs of the peptides were measured using a modified broth microdilution method in Mueller Hinton (MH) medium. Wu et al., J. Biol. Chem. 274: 29-35, 1999. Briefly, the peptides were dissolved and stored in glass vials. The assay was performed in sterile 96-well polypropylene microtitre plates were used. Serial dilutions of the peptides to be assayed were performed in 0.01% acetic acid (Fisher) containing 0.2% bovine serum albumin (Boehringer Mannheim GmbH) at 10× the desired final concentration. Ten microlitres of the 10× peptides were added to each well of a 96-well polypropylene plate containing 90 μl of MH media per well. Bacteria were added to the plate from an overnight culture at 2-7×10^5 colony forming units/ml and incubated over night at 37° C. The MIC was taken as the concentration at which no growth was observed.
(§2) Strains. For the killing assay a mini-Tn5-lux mutant in Pseudomonas aeruginosa H103 was used. The strain is called H1001 and contains a fliC::luxCDABE transcriptional fusion resulting in constitutive expression of luciferase. The bacterial strains used for the antimicrobial activity assays included Escherichia coli UB1005 (F-, nalA37, metB1), a wild-type Salmonella enterica ssp. Typhimurium (S. Typhimurium), wild-type Pseudomonas aeruginosa PAO1 strain H103, Enterococcus faecalis ATCC29212, Staphylococcus aureus ATCC25923, and a clinical isolate of Staphylococcus epidermidis obtained from Dr. D. Speert (Department of Medicine, University of British Columbia). Antifungal activity was tested using a lab isolate of Candida albicans obtained from Dr. B. Dill (Department of Microbiology and Immunology, University of British Columbia).
(§3) In addition, the parent peptide Bac2A was included in these studies as a standard. The minimal inhibitory concentrations (MIC) were determined for the important medical pathogens Pseudomonas aeruginosa, Escherichia coli, Salmonella typhimurium, Staphylococcus aureus, Staphylococcus epidermidis, Enterococcus faecaelis, and the yeast Candida albicans in Mueller-Hinton media.

[2] = tested on: Staphylococcus aureus ATCC25923
Procedure: as §1, §2, §3

[3] = tested on: Pseudomonas aeruginosa PAO1 strain H103; settings: for MIC P. aerug: Table 6; for MIC P. aeruginosa / MIC P. aeruginosa Muller Hinton Media / MIC P. aeruginosa With 10 μM Mg / MIC P. aeruginosa With 2 mM Mg: PAO1
Procedure: as §1, §2, §3

Escherichia coli UB1005 = settings: Table 6
Procedure: as §1, §2, §3

[4] = tested on: Staphylococcus epidermidis; settings: for MIC S. epi.: Table 6
Procedure: as §1, §2, §3

Candida albicans = tested on: Candida albicans
Procedure: as §1, §2, §3

[5] = tested on: Salmonella enterica ssp. Typhimurium; settings: for MIC S. Typhim.: Table 6; for MIC S. typhimurium: ssp. Typhimurium
Procedure: as §1, §2, §3

[6] = tested on: Pseudomonas aeruginosa strain H1001; experiment: Assay for the cleaved (free, soluble) peptides from cellulose support, luminescence killing assay; assay type: cell-based; set-up: key: 1: Peptides showing stronger killing than Bac2A at a 4 to 8-fold higher dilution; Peptides showing stronger killing compared to that of Bac2A at a 4-fold higher dilution; 3: Peptides similar to Bac2A; 4: Peptides similar to Bac2A at the highest concentration but demonstrating weaker killing at a 2-fold dilution; 5: Peptides giving very weak or no killing at a 2-fold dilution; 6: Peptides with weak killing activity at the highest concentration; settings: for Soluble Class: Table 5, free peptides; for Activity Class Soluble: free (cleaved) peptides, killing relative to Bac2A
How it was run: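 Cellulose-synthesized peptides (amidated C-terminus, two β-alanines) cleaved by ammonia, released from punched spots 30 min at 37 °C, then serially diluted. P. aeruginosa H1001 (constitutive fliC::luxCDABE) overnight culture diluted 1:500 in LB or 100 mM Tris pH 7.3/20 mM glucose. Killing followed as time-dependent luminescence loss at 37 °C.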

[7] = tested on: Pseudomonas aeruginosa strain H1001 fliC::luxCDABE; experiment: Luminescence-based assay for the non-cleaved (bound) peptides on cellulose membranes; assay type: cell-based; settings: for Luminescence at the given time in minutes: 0 / Luminescence at the given time in minutes: 20 / Luminescence at the given time in minutes: 40 / Luminescence at the given time in minutes: 60 / Luminescence at the given time in minutes: 80 / Luminescence at the given time in minutes: 100 / Luminescence at the given time in minutes: 120 / Luminescence at the given time in minutes: 180 / Luminescence at the given time in minutes: 240: cellulose-bound peptide; for Luminescence at the given time in minutes: 0: 0 min; for Luminescence at the given time in minutes: 20: 20 min; for Luminescence at the given time in minutes: 40: 40 min; for Luminescence at the given time in minutes: 60: 60 min; for Luminescence at the given time in minutes: 80: 80 min; for Luminescence at the given time in minutes: 100: 100 min; for Luminescence at the given time in minutes: 120: 120 min; for Luminescence at the given time in minutes: 180: 180 min; for Luminescence at the given time in minutes: 240: 240 min; for Activity Class bound: uncleaved cellulose-bound peptides
How it was run: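 Peptides remained bound to cellulose spots, which were ethanol-washed and equilibrated in 100 mM Tris pH 7.3. Constitutively lux-expressing P. aeruginosa (OD600 0.35 culture diluted 1:25) added in 10 mM Tris-HCl pH 7.3, 20 mM glucose at 37° C. Luminescence (RLU) followed over 14 time points; peptides binned into six activity classes.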

Substance	MIC E. faecalis ([1]; Table 6)	MIC S. aureus ([2]; Table 6)	MIC P. aerug [3]	MIC E. coli (Escherichia coli UB1005)	MIC S. epi. [4]	MIC C. albicans (Candida albicans; Table 6)	MIC S. Typhim. [5]	MIC E. faecalis ([1]; ATCC29212)	MIC S. aureus ([2]; ATCC25923)	MIC P. aeruginosa [3]	MIC P. aeruginosa Muller Hinton Media [3]	MIC P. aeruginosa With 10 μM Mg [3]	MIC P. aeruginosa With 2 mM Mg [3]	MIC S. epidermidis [4]	MIC C. albicans (Candida albicans)	MIC S. typhimurium [5]	Soluble Class [6]	Activity Class Soluble [6]	Luminescence at the given time in minutes: 0 [7]	Luminescence at the given time in minutes: 20 [7]	also measured
Bac241: peptide of Table 6 (substitution peptides and truncation variants of Bac2A); sequence in Table 1 (RLERIVVIRVAR)	n.s.	n.s.	n.s.	n.s.	n.s.	n.s.	n.s.														
Bac112: peptide of Table 6 (substitution peptides and truncation variants of Bac2A); sequence in Table 1 (ARIVVIRV)	n.s.	n.s.	n.s.	n.s.	n.s.	n.s.	n.s.														
Bac263: peptide of Table 6 (substitution peptides and truncation variants of Bac2A); sequence in Table 1 (RLAGIVVIRVAR)	n.s.	n.s.	n.s.	n.s.	n.s.	n.s.	n.s.														
Bac118: peptide of Table 6 (substitution peptides and truncation variants of Bac2A); sequence in Table 1 (RIVVIRV)	n.s.	n.s.	n.s.	n.s.	n.s.	n.s.	n.s.														
ILRRVRVRAVAI-NH2 (C-terminus assumed) [Bac022]								272 µg/mL	125 µg/mL	250 µg/mL	250 µg/mL	250 µg/mL	>250 µg/mL	136 µg/mL	272 µg/mL	272 µg/mL	6	6	4336 RLU	7179 RLU	Luminescence at the given time in minutes: 40 [7]: 5180 RLU; Luminescence at the given time in minutes: 60 [7]: 4505 RLU; Luminescence at the given time in minutes: 80 [7]: 3675 RLU; Luminescence at the given time in minutes: 100 [7]: 3365 RLU; Luminescence at the given time in minutes: 120 [7]: 3044 RLU; Luminescence at the given time in minutes: 180 [7]: 2912 RLU; Luminescence at the given time in minutes: 240 [7]: 2966 RLU; Activity Class bound [7]: 5 (Peptides reducing luminescence (lux) values to between 1500 to 3000 after 240 min.)
VRLRIRVAVIRA-NH2 (C-terminus assumed) [Bac034]								11 µg/mL	5 µg/mL	10 µg/mL	10 µg/mL	4 µg/mL	16 µg/mL	4 µg/mL	8 µg/mL	6 µg/mL	1	1	5305 RLU	6449 RLU	Luminescence at the given time in minutes: 40 [7]: 4160 RLU; Luminescence at the given time in minutes: 60 [7]: 1454 RLU; Luminescence at the given time in minutes: 80 [7]: 390 RLU; Luminescence at the given time in minutes: 100 [7]: 157 RLU; Luminescence at the given time in minutes: 120 [7]: 64 RLU; Luminescence at the given time in minutes: 180 [7]: 60 RLU; Luminescence at the given time in minutes: 240 [7]: 63 RLU; Activity Class bound [7]: 3 (Peptides similar to Bac2A resulting in lux values of less than 500 after 240 min.)
Bac109: peptide of Table 6 (substitution peptides and truncation variants of Bac2A); sequence in Table 1 (RIVVIRVAR)	n.s.	n.s.	n.s.	n.s.	n.s.	n.s.	n.s.														
RAVAVIIRLRRV-NH2 (C-terminus assumed) [Bac014]								11 µg/mL	13 µg/mL	33 µg/mL	33 µg/mL	16 µg/mL	63 µg/mL	8 µg/mL	8 µg/mL	11 µg/mL	1	1	5233 RLU	8217 RLU	Luminescence at the given time in minutes: 40 [7]: 7835 RLU; Luminescence at the given time in minutes: 60 [7]: 7867 RLU; Luminescence at the given time in minutes: 80 [7]: 8100 RLU; Luminescence at the given time in minutes: 100 [7]: 8931 RLU; Luminescence at the given time in minutes: 120 [7]: 8956 RLU; Luminescence at the given time in minutes: 180 [7]: 10738 RLU; Luminescence at the given time in minutes: 240 [7]: 12876 RLU
VIRRRRILAAVV-NH2 (C-terminus assumed) [Bac044]								> 272 µg/mL	250 µg/mL	> 250 µg/mL	>250 µg/mL	250 µg/mL	>250 µg/mL	113 µg/mL	136 µg/mL	113 µg/mL	6	6	5592 RLU	7069 RLU	Luminescence at the given time in minutes: 40 [7]: 5932 RLU; Luminescence at the given time in minutes: 60 [7]: 5652 RLU; Luminescence at the given time in minutes: 80 [7]: 5206 RLU; Luminescence at the given time in minutes: 100 [7]: 5008 RLU; Luminescence at the given time in minutes: 120 [7]: 4999 RLU; Luminescence at the given time in minutes: 180 [7]: 5060 RLU; Luminescence at the given time in minutes: 240 [7]: 5195 RLU; Activity Class bound [7]: 6 (Peptides having residual luminescence (lux) values greater than 3000 after 240 min.)
Bac297: peptide of Table 6 (substitution peptides and truncation variants of Bac2A); sequence in Table 1 (RLARICVIRVAR)	n.s.	n.s.	n.s.	n.s.	n.s.	n.s.	n.s.														
